Experimental data reported in US9211310B2, “Use of a Chinese medicine composition in preparing medicaments for treating secondary prevention of myocardial infarction” (TASLY PHARMACEUTICAL GROUP CO., LTD, priority 2010, dated 2015).

System: patients after acute myocardial infarction
Test: TCM symptom score, total and single (chest pain, chest tightness, short breath, fatigue, palpitation, spontaneous perspiration, pale complexion), same clinical trial
Format: in vivo, human
Parameters: total score of TCM symptom, Mean / total score of TCM symptom, Min / total score of TCM symptom, Max / total score of TCM symptom, Md / change of total score of TCM symptom, Mean / change of total score of TCM symptom, Max / change of total score of TCM symptom, Md: scale not given here
Settings: PP
Source text: 3508 patients who were in accordance with the diagnostic standards of AMI for 28 days to 2 years and differentiated as Qi deficiency and blood stagnation syndrome by TCM were studied. 0.5 g Chinese medicine composition prepared by the method of EXAMPLE 1 (Coded as QSYQ) was administrated half an hour after meal, 3 times per day.
They included the overall survival time, angina pectoris score, TCM symptom score and life quality score, where angina pectoris score, TCM symptom score and life quality score were evaluated at randomization, in 1st, 3rd, 6th, 9th, 12th month after treatment and 18th month after follow-up.
The analysis method referred to the angina pectoris score.

[1] = 9 months after treatment-baseline
[2] = 12 months after treatment-baseline

Question: Which results are given for `CC(=O)Oc1ccccc1C(=O)O` [Control group, aspirine]?
Answer: change of spontaneous perspiration −2, percent of patients [1]: (0.43%); change of spontaneous perspiration −3, number of patients [1]: 0; change of spontaneous perspiration −3, percent of patients [1]: (0.00%); change of total score of TCM symptom, Max [1]: 15.00; change of total score of TCM symptom, Md [1]: −4.00; change of total score of TCM symptom, Mean [1]: −5.04; change of short breath 0, number of patients (12 months after treatment): 743; distribution of total score of TCM symptom: Medium, number of patients (12 months after treatment): 229; distribution of total score of TCM symptom: Medium, percentage of patients (12 months after treatment): (16.33%); distribution of total score of TCM symptom: Mild, number of patients (12 months after treatment): 1172; distribution of total score of TCM symptom: Mild, percentage of patients (12 months after treatment): (83.59%); distribution of total score of TCM symptom: Severe, number of patients (12 months after treatment): 1; distribution of total score of TCM symptom: Severe, percentage of patients (12 months after treatment): (0.07%); fatigue score 0, % of patients (12 months after treatment): (39.06%); fatigue score 0, number of patients (12 months after treatment): 548; fatigue score 2, % of patients (12 months after treatment): (58.16%); fatigue score 2, number of patients (12 months after treatment): 816; fatigue score 4, % of patients (12 months after treatment): (2.64%); fatigue score 4, number of patients (12 months after treatment): 37; fatigue score 6, % of patients (12 months after treatment): (0.14%); fatigue score 6, number of patients (12 months after treatment): 2; pale complexion score 0, number of patients (12 months after treatment): 870; pale complexion score 0, percent of patients (12 months after treatment): (62.01%); pale complexion score 1, number of patients (12 months after treatment): 463; pale complexion score 1, percent of patients (12 months after treatment): (33.00%); pale complexion score 2, number of patients (12 months after treatment): 63; pale complexion score 2, percent of patients (12 months after treatment): (4.49%); pale complexion score 3, number of patients (12 months after treatment): 7; pale complexion score 3, percent of patients (12 months after treatment): (0.50%); palpitation score 0, number of patients (12 months after treatment): 576; palpitation score 0, percent of patients (12 months after treatment): (41.05%); palpitation score 2, number of patients (12 months after treatment): 745; palpitation score 2, percent of patients (12 months after treatment): (53.10%); palpitation score 4, number of patients (12 months after treatment): 78; palpitation score 4, percent of patients (12 months after treatment): (5.56%); palpitation score 6, number of patients (12 months after treatment): 4; palpitation score 6, percent of patients (12 months after treatment): (0.29%); short breath score 0, % of patients (12 months after treatment): (33.36%); short breath score 0, number of patients (12 months after treatment): 468; short breath score 3, % of patients (12 months after treatment): (58.45%); short breath score 3, number of patients (12 months after treatment): 820; short breath score 6, % of patients (12 months after treatment): (8.20%); short breath score 6, number of patients (12 months after treatment): 115; short breath score 9, % of patients (12 months after treatment): (0.00%); short breath score 9, number of patients (12 months after treatment): 0; spontaneous perspiration score 0, number of patients (12 months after treatment): 730; spontaneous perspiration score 0, percent of patients (12 months after treatment): (52.03%); spontaneous perspiration score 1, number of patients (12 months after treatment): 640; spontaneous perspiration score 1, percent of patients (12 months after treatment): (45.62%); spontaneous perspiration score 2, number of patients (12 months after treatment): 31; spontaneous perspiration score 2, percent of patients (12 months after treatment): (2.21%); spontaneous perspiration score 3, number of patients (12 months after treatment): 2; spontaneous perspiration score 3, percent of patients (12 months after treatment): (0.14%); total score of TCM symptom, Max (12 months after treatment): 28.00; total score of TCM symptom, Md (12 months after treatment): 7.00; total score of TCM symptom, Mean (12 months after treatment): 7.81; total score of TCM symptom, Min (12 months after treatment): 0.00; change of fatigue 0, % of patients [2]: (44.10%); change of fatigue 0, number of patients [2]: 617; change of fatigue 2, % of patients [2]: (38.03%); change of fatigue 2, number of patients [2]: 532; change of fatigue 4, % of patients [2]: (10.51%); change of fatigue 4, number of patients [2]: 147; change of fatigue 6, % of patients [2]: (1.64%); change of fatigue 6, number of patients [2]: 23; change of fatigue −2, % of patients [2]: (5.43%); change of fatigue −2, number of patients [2]: 76; change of fatigue −4, % of patients [2]: (0.29%); change of fatigue −4, number of patients [2]: 4; change of pale complexion 0, number of patients [2]: 967; change of pale complexion 0, percent of patients [2]: (69.22%); change of pale complexion 1, number of patients [2]: 393; change of pale complexion 1, percent of patients [2]: (28.13%); change of pale complexion −1, number of patients [2]: 37; change of pale complexion −1, percent of patients [2]: (2.65%); change of palpitation 0, number of patients [2]: 679; change of palpitation 0, percent of patients [2]: (48.53%); change of palpitation 1, number of patients [2]: 536; change of palpitation 1, percent of patients [2]: (38.31%); change of palpitation 2, number of patients [2]: 97; change of palpitation 2, percent of patients [2]: (6.93%); change of palpitation 3, number of patients [2]: 6; change of palpitation 3, percent of patients [2]: (0.43%); change of palpitation −1, number of patients [2]: 78; change of palpitation −1, percent of patients [2]: (5.58%); change of palpitation −2, number of patients [2]: 3; change of palpitation −2, percent of patients [2]: (0.21%); change of spontaneous perspiration 0, number of patients [2]: 647; change of spontaneous perspiration 0, percent of patients [2]: (46.28%); change of spontaneous perspiration 1, number of patients [2]: 483; change of spontaneous perspiration 1, percent of patients [2]: (34.55%); change of spontaneous perspiration 2, number of patients [2]: 128; change of spontaneous perspiration 2, percent of patients [2]: (9.16%); change of spontaneous perspiration 3, number of patients [2]: 29; change of spontaneous perspiration 3, percent of patients [2]: (2.07%); change of spontaneous perspiration −1, number of patients [2]: 103; change of spontaneous perspiration −1, percent of patients [2]: (7.37%); change of spontaneous perspiration −2, number of patients [2]: 8; change of spontaneous perspiration −2, percent of patients [2]: (0.57%); change of total score of TCM symptom, Max [2]: 18.00; change of total score of TCM symptom, Md [2]: −5.00; change of total score of TCM symptom, Mean [2]: −6.09; change of total score of TCM symptom, Min [2]: −28.00; distribution of total score of TCM symptom: Medium, number of patients (Baseline): 717; distribution of total score of TCM symptom: Medium, percentage of patients (Baseline): (48.78%); distribution of total score of TCM symptom: Mild, number of patients (Baseline): 701; distribution of total score of TCM symptom: Mild, percentage of patients (Baseline): (47.69%); distribution of total score of TCM symptom: Severe, number of patients (Baseline): 52; distribution of total score of TCM symptom: Severe, percentage of patients (Baseline): (3.54%); fatigue score 0, % of patients (Baseline): (18.22%); fatigue score 0, number of patients (Baseline): 268; fatigue score 2, % of patients (Baseline): (60.50%); fatigue score 2, number of patients (Baseline): 890; fatigue score 4, % of patients (Baseline): (17.74%); fatigue score 4, number of patients (Baseline): 261; fatigue score 6, % of patients (Baseline): (3.54%); fatigue score 6, number of patients (Baseline): 52; pale complexion score 0, number of patients (Baseline): 494; pale complexion score 0, percent of patients (Baseline): (33.61%); pale complexion score 1, number of patients (Baseline): 626; pale complexion score 1, percent of patients (Baseline): (42.59%); pale complexion score 2, number of patients (Baseline): 293; pale complexion score 2, percent of patients (Baseline): (19.93%); pale complexion score 3, number of patients (Baseline): 57
